Data taken from patent US4284619A, “Esters useful as brain imaging agents” (Medi-Physics, Inc., priority 1978, dated 1981).

Experiments:
[1] = Biodistribution bioassay of I-123-labeled compounds in rats, 5 minutes after tail vein injection (blood, brain, heart, stomach activity); type: in vivo, Female Sprague-Dawley rats; details: rat; for Percent Dose/g. at 5 min. Blood / Percent Dose/g. at 5 min. Brain / Percent Dose/g. at 5 min. Heart: 0.05 to 1.0 mCi, I-123-labeled
Description: Bioassays were performed utilizing compounds from the foregoing examples labeled with I-123 in accordance with the method described in Example 11. Female Sprague-Dawley rats weighing approximately 150 g. were anesthetized with sodium pentobarbital and were injected in a tail vein with from 0.05 to 1.0 mCi (in a volume of 0.2 to 0.5 ml) of the I-123-labeled compound. Two specimens were utilized for each test.
The animals were sacrificed at 5 minutes post injection, the tails discarded and the amount of activity in various organs determined. Each organ was counted at a standardized geometry with a thallium iodide-activated sodium iodide crystal scintillation counter adjusted for the 159 keV emission of I-123. The organs were also weighed to one thousandth of a gram and the activity calculated as a percent of administered dose per gram organ weight.
The ratio of brain-to-blood activity was calculated as a percent of administered dose per gram. The important determinations are the amount of activity in the brain and the brain/blood ratio. The amount of activity in the stomach is related to loss of the I-123-label. For comparative purposes, I-123 antipyrine was utilized as a standard.

[2] = prior art brain imaging agent; cited from earlier work
[3] = i.v. tail vein, ratio of percent dose per gram
[4] = i.v. tail vein, stomach, related to loss of the I-123-label

| Compound | Percent Dose in Stomach ([1]; in vivo, iv) | Ratio Brain/Blood ([1]; in vivo, iv) | Ratio Heart/Blood ([1]; in vivo, iv) | Percent Dose/g. at 5 min. Blood ([1]; i.v. tail vein) | Percent Dose/g. at 5 min. Brain ([1]; i.v. tail vein) | Percent Dose/g. at 5 min. Heart ([1]; i.v. tail vein) | Ratio Brain/Blood [1, 3] | Ratio Heart/Blood [1, 3] | Percent Dose in Stomach [1, 4] | loss of the iodine label in the brain [2] |
| --- | --- | --- | --- | --- | --- | --- | --- | --- | --- | --- |
| glyceryl o-iodobenzoate [Example 5] |  |  |  | 1.67 Percent Dose/g. | 0.73 Percent Dose/g. | 1.12 Percent Dose/g. | 0.43 | 0.67 | 0.79 Percent Dose |  |
| CCOC(=O)c1ccccc1[123I] [Example 2, ethyl o-iodobenzoate] | 0.81 Percent Dose | 0.14 | 0.59 |  |  |  |  |  |  |  |
| pyridoxyl o-iodobenzoate [Example 9] |  |  |  | 1.61 Percent Dose/g. | 0.31 Percent Dose/g. | 1.02 Percent Dose/g. | 0.19 | 0.63 | 0.93 Percent Dose |  |
| O=C(OCc1ccccc1)c1ccccc1[123I] [Example 7, benzyl o-iodobenzoate] | 1.46 Percent Dose | 0.25 | 0.65 |  |  |  |  |  |  |  |
| O=C(Oc1ccccc1)c1ccccc1[123I] [Example 6, phenyl o-iodobenzoate] | 0.92 Percent Dose | 0.20 | 0.60 |  |  |  |  |  |  |  |

Second part, led by results:

| Percent Dose in Stomach ([1]; in vivo, iv) | Ratio Brain/Blood ([1]; in vivo, iv) | Ratio Heart/Blood ([1]; in vivo, iv) | Compound | Percent Dose/g. at 5 min. Blood ([1]; i.v. tail vein) | Percent Dose/g. at 5 min. Brain ([1]; i.v. tail vein) | Percent Dose/g. at 5 min. Heart ([1]; i.v. tail vein) | Ratio Brain/Blood [1, 3] | Ratio Heart/Blood [1, 3] | Percent Dose in Stomach [1, 4] | loss of the iodine label in the brain [2] |
| --- | --- | --- | --- | --- | --- | --- | --- | --- | --- | --- |
| 0.77 Percent Dose | 0.08 | 0.51 | O=C(Oc1cccc(O)c1O)c1ccccc1[123I] [Example 8, pyrogallyl o-iodobenzoate] |  |  |  |  |  |  |  |
| 0.92 Percent Dose | 0.12 | 0.53 | CCCCCCCCCCCCCCCCCCOC(=O)c1ccccc1[123I] [Example 10, octadecyl o-iodobenzoate] |  |  |  |  |  |  |  |
| 2.23 Percent Dose |  |  | Cc1c([123I])c(=O)n(-c2ccccc2)n1C [^I 123-iodoantipyrine, 4-iodoantipyrine, reference compound] |  |  |  |  |  |  | significant loss of the iodine label in the brain |
